The experiment concerns the target Nrf2-Keap1 complex (Homo sapiens, UniProt Q14145). Briefly: cell-based. Type of experiment: cell-based. The following applies: for activation at 16 µM / activation at 32 µM: 3 h; for activation at 16 µM: read-out: Activation 100 nL; for activation at 32 µM: read-out: Activation 200 nL.
The mark [1] stands for this setting: Table 1A, 100 nL compound, screen run at 16 and 32 μM, 3 hr.
The mark [2] stands for this setting: Table 1A, 200 nL compound, screen run at 16 and 32 μM, 3 hr.
[3] abbreviates: Table 2, 100 nL compound, screen run at 16 and 32 μM, 3 hr.
Where [4] appears, read: Table 2, 200 nL compound, screen run at 16 and 32 μM, 3 hr.

Structures can show the parent of a compound that is named as a salt. Where two headings read alike, the source gives them in different places.

We go through 34 compounds from patent publication US9200046B2, “Reporter system for high throughput screening of compounds and uses thereof” (priority 2011, dated 2015).

Nrf2-Keap1 complex, sequence (Q14145 whole entry, one chain of several): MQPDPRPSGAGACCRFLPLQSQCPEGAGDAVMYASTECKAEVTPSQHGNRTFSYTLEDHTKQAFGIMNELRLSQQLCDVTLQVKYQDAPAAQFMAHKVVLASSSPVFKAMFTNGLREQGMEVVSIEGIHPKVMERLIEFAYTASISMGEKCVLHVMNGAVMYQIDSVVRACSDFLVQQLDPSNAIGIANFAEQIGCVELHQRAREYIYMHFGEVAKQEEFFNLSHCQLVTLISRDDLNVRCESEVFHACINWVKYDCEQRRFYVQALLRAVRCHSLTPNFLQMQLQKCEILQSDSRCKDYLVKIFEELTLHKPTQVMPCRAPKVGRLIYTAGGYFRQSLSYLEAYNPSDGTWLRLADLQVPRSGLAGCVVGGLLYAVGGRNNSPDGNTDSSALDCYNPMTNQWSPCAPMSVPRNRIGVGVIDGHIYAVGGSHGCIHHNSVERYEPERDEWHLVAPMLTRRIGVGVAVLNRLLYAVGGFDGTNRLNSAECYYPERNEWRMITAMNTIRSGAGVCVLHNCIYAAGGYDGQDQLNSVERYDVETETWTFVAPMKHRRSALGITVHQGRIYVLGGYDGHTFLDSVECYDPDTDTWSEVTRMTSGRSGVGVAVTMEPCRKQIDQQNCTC

In the case of `CNc1ccccc1C(=O)N1CCc2c([nH]c3ccccc23)C1=O` [RHETSININE], the activation at 16 µM amounted to 53% and the activation at 32 µM stood at 4%. For the same compound, the “100 nL (luminescence)” value under setting [1] stood at 1076. The “200 nL (luminescence)” value under setting [2] is on record as 532.
In the case of `O=C(NC(=O)c1c(F)cccc1F)Nc1cc(Cl)c(OC(F)(F)C(F)C(F)(F)F)cc1Cl` (stereo not shown) [LUFENURON], the “100 nL (luminescence)” value is given as 644, the “200 nL (luminescence)” value amounted to 1022, the activation at 16 µM came to 32% and the activation at 32 µM came out at 29%.
As to AVOCADYNOFURAN, the “Activation 100 nL” value is listed as 25% and the “Activation 200 nL” value turned out to be 29%. Moreover, under setting [3], the “100 nL (luminescence)” value is given as 582. Under setting [4], the “200 nL (luminescence)” value is listed as 1008.
Take `Cc1cccc2c3c(ccc12)C1=C(C(=O)C3=O)[C@@H](C)CO1` [DIHYDROTANSHINONEI]: the activation at 16 µM came out at 158% and the activation at 32 µM was determined as 5%. Further, the “100 nL (luminescence)” value under setting [3] came out at 2480. Moreover, under setting [4], the “200 nL (luminescence)” value came out at 572.
For `O=C(CC(=O)c1ccccc1)c1ccccc1` [DIBENZOYLMETHANE], the “100 nL (luminescence)” value came out at 1368, the “200 nL (luminescence)” value is 204, the activation at 16 µM was 66% and the activation at 32 µM was -8%.
Turning to 1(2)alpha-EPDXYDEOXYDIHYDROGEDUNIN, the “Activation 100 nL” value was 29% and the “Activation 200 nL” value amounted to 25%. Also, the “100 nL (luminescence)” value under setting [3] was 752. Also, under setting [4], the “200 nL (luminescence)” value is 1028.
In the case of `C=C(C)[C@@H]1CC=C(CO)CC1` [PERILLYLALCOHOL], the “100 nL (luminescence)” value stood at 824, the “200 nL (luminescence)” value was determined as 736, the activation at 16 µM was found to be 31% and the activation at 32 µM stood at 27%.
Consider `COc1ccc(-c2coc3cc(O)ccc3c2=O)c(O)c1O` [KOPARIN], for which the “Neh2-luc reporter activation” value is more than 200%, the activation at 16 µM was 223% and the activation at 32 µM is 11%. For the same compound, the “100 nL (luminescence)” value under setting [3] was 3768. The “200 nL (luminescence)” value under setting [4] is reported as 492.
For `COc1cc([C@@H]2c3cc4c(cc3[C@H](O)[C@H]3COC(=O)[C@@H]23)OCO4)cc(OC)c1OC` [PICROPODOPHYLLOTOXIN], the activation at 16 µM worked out at 32% and the activation at 32 µM was 57%. Moreover, the “100 nL (luminescence)” value under setting [3] was 848. Under setting [4], the “200 nL (luminescence)” value came to 1196.
`CCOC(=O)CCC(=O)O[C@H]1[C@H](O[C@@H]2[C@@H](C)[C@H](O[C@H]3C[C@@](C)(OC)[C@@H](O)[C@H](C)O3)[C@@H](C)C(=O)O[C@H](CC)[C@@](C)(O)[C@H](O)[C@@H](C)C(=O)[C@H](C)C[C@@]2(C)O)O[C@H](C)C[C@@H]1N(C)C` [ERYTHROMYCINETHYLSUCCINATE, reference compound]: the activation at 16 µM came to 41% and the activation at 32 µM is -20%.
For `CC1CCc2cc(F)cc3c(=O)c(C(=O)O)cn1c23` (stereo not shown) [FLUMEQUINE, reference compound], the “100 nL (luminescence)” value stood at 1156, the “200 nL (luminescence)” value is on record as 368, the activation at 16 µM was 38% and the activation at 32 µM was -2%.
`O=S(=O)(O)CCS` [MESNA, reference compound]: the “100 nL (luminescence)” value came to 952, the “200 nL (luminescence)” value came to 612, the activation at 16 µM amounted to 28% and the activation at 32 µM amounted to 18%.
Take `CSc1nc(NC(C)C)nc(NC(C)C)n1` [PROMETRYN]: the activation at 16 µM came to 67% and the activation at 32 µM is 4%. The “100 nL (luminescence)” value under setting [3] is given as 1264. Further, the “200 nL (luminescence)” value under setting [4] was 542.
Taken in the same sequence, the figures for `CCOCN(C(=O)CCl)c1c(C)cccc1CC` [ACETOCHLOR] were 71%, 112%, 1320 and 3024.
For `COc1cc([C@@H]2c3cc4c(cc3[C@@H](O[C@@H]3O[C@@H]5CO[C@@H](c6cccs6)O[C@H]5[C@H](O)[C@H]3O)[C@H]3COC(=O)[C@H]23)OCO4)cc(OC)c1O` [TENIPOSIDE, reference compound], the “Neh2-luc reporter activation” value is 200%, the activation at 16 µM turned out to be 159% and the activation at 32 µM worked out at 61%. The “100 nL (luminescence)” value under setting [3] is 3572. In addition, the “200 nL (luminescence)” value under setting [4] came to 1520.
For `Nc1nc(N)c2nc(-c3ccccc3)c(N)nc2n1` [reference compound], the activation at 16 µM came to 405% and the activation at 32 µM is 23%. Also, the “100 nL (luminescence)” value under setting [1] is reported as 3914. The “200 nL (luminescence)” value under setting [2] is reported as 872.
Take `O=c1ccn([C@@H]2O[C@H](COP(=O)([O-])OP(=O)([O-])OP(=O)([O-])O)[C@@H](O)[C@H]2O)c(=O)[nH]1.[Na+].[Na+].[Na+]` [URIDINETRIPHOSPHATETRISODIUM]: the “Activation 100 nL” value is recorded as 28% and the “Activation 200 nL” value stood at 16%. Besides, the “100 nL (luminescence)” value under setting [3] is 612. Also, under setting [4], the “200 nL (luminescence)” value is listed as 708.
`CC(=O)NC(C(=O)O)C(C)(C)SN=O` (stereo not shown) [reference compound]: the “Activation 100 nL” value came to 45% and the “Activation 200 nL” value is reported as 52%. The “100 nL (luminescence)” value under setting [3] is recorded as 1044. In addition, the “200 nL (luminescence)” value under setting [4] was 1120.
In the case of `CC(=O)OC1CC[C@@]2(C)C(CC[C@H]3[C@@H]4CC=C(C(C)=O)[C@@]4(C)C(=O)C[C@@H]32)C1` (stereo partly shown) [3-ACETOXYPREGN-16-EN-12,20-DIONE], the activation at 16 µM amounted to 214% and the activation at 32 µM amounted to 30%. In addition, the “100 nL (luminescence)” value under setting [3] was found to be 2236. In addition, the “200 nL (luminescence)” value under setting [4] amounted to 1040.
Consider `COc1ccc2ccc(=O)oc2c1CC=C(C)C` [OSTHOL], for which the “Activation 100 nL” value is recorded as 58% and the “Activation 200 nL” value was 52%. Under setting [3], the “100 nL (luminescence)” value was 1136. Besides, under setting [4], the “200 nL (luminescence)” value is recorded as 1634.
With `COc1cc(O)c2c(=O)cc(C)oc2c1CC=C(C)C` [HETEROPEUCENIN, METHYLETHER], the “Activation 100 nL” value was found to be 27% and the “Activation 200 nL” value is 45%. Under setting [3], the “100 nL (luminescence)” value is listed as 772. Besides, the “200 nL (luminescence)” value under setting [4] is on record as 1020.
On to `O=c1oc2cc(O)ccc2s1` [TIOXOLONE, reference compound], for which the activation at 16 µM was found to be 156% and the activation at 32 µM was 31%. For the same compound, the “100 nL (luminescence)” value under setting [3] was 3542. Also, under setting [4], the “200 nL (luminescence)” value is recorded as 768.
For `O=c1c(O)c(-c2ccccc2)oc2cccc(O)c12` [3,5-DIHYDROXYFLAVONE] the same measures were 66%, -17%, 1484 and 24.
For `O=c1cc(-c2cc(O)c(O)c(O)c2)oc2cc(O)cc(O)c12` [HIERACIN], the “Activation 100 nL” value was found to be 160% and the “Activation 200 nL” value is 60%. Further, the “100 nL (luminescence)” value under setting [3] came out at 2502. Further, the “200 nL (luminescence)” value under setting [4] worked out at 1832.
`ClC1=C(Cl)C2(Cl)C3C(Cl)C(Cl)CC3C1(Cl)C2(Cl)Cl` (stereo not shown) [CHLORDANE]: the activation at 16 µM is 107% and the activation at 32 µM came to 135%. The “100 nL (luminescence)” value under setting [3] is given as 1796. The “200 nL (luminescence)” value under setting [4] came to 3540.
With `CC(C)C1=CC2=CC[C@@H]3[C@](C)(CCC[C@@]3(C)C(=O)O)[C@H]2CC1` [ABIETICACID], the “100 nL (luminescence)” value is 1256, the “200 nL (luminescence)” value was found to be 1748, the activation at 16 µM amounted to 67% and the activation at 32 µM was found to be 57%.
In the case of `CC(C)CCCC1(C)C=Cc2c(O)c3c(c(CCC(C)C)c2O1)OC12C(CC4CC1C(C)(C)OC2(CCC(C)C(=O)O)C4O)C3=O` (stereo not shown) [DECAHYDROGAMBOGICACID], the activation at 16 µM came out at 54% and the activation at 32 µM was determined as 40%. Moreover, the “100 nL (luminescence)” value under setting [3] came out at 1184. Moreover, the “200 nL (luminescence)” value under setting [4] is listed as 936.
On to `COC(=O)[C@H]1[C@H]2C[C@@H]3c4[nH]c5cc(OC)ccc5c4CCN3C[C@H]2C[C@@H](OC(=O)c2cc(OC)c(OC)c(OC)c2)[C@@H]1OC` [RESERPINE, reference compound], for which the activation at 16 µM turned out to be 36% and the activation at 32 µM worked out at 8%. Under setting [3], the “100 nL (luminescence)” value came to 1120. Moreover, under setting [4], the “200 nL (luminescence)” value is listed as 572.
For the compound `CC(C)c1ccc2c(c1)CC[C@H]1[C@](C)(C(N)=O)CCC[C@]21C` [DEHYDROABIETAMIDE], the activation at 16 µM was 66% and the activation at 32 µM was 135%.
`COC(=O)Nc1nc2cc(C(=O)c3cccs3)ccc2[nH]1` [NOCODAZOLE, reference compound]: the activation at 16 µM turned out to be 28% and the activation at 32 µM turned out to be 48%. Also, the “100 nL (luminescence)” value under setting [1] came out at 940. Moreover, the “200 nL (luminescence)” value under setting [2] was determined as 980.
Turning to `CN(C)c1ccc(O)c2c1C[C@H]1C[C@H]3[C@H](N(C)C)C(O)=C(C(N)=O)C(=O)[C@@]3(O)C(O)=C1C2=O` [MINOCYCLINEHYDROCHLORIDE, reference compound], the “Neh2-luc reporter activation” value was 200%, the activation at 16 µM is 326% and the activation at 32 µM amounted to 169%.
For `CCC(C)C(=O)c1c(O)c(C)c2oc3c(C)c(O)c(C(=O)C(C)CC)c(O)c3c2c1O` (stereo not shown) [RHODOMYRTOXINB], the activation at 16 µM was found to be 56% and the activation at 32 µM was 36%. The “100 nL (luminescence)” value under setting [1] was 1120. For the same compound, the “200 nL (luminescence)” value under setting [2] is reported as 1276.
`CC(C)[C@@H](C)/C=C/[C@@H](C)[C@H]1CC[C@H]2C3=CC=C4C[C@@H](O)CC[C@]4(C)[C@H]3CC[C@]12C` [ERGOSTEROL]: the activation at 16 µM came out at 86% and the activation at 32 µM worked out at 86%. In addition, the “100 nL (luminescence)” value under setting [3] is 1676. In addition, under setting [4], the “200 nL (luminescence)” value is 1640.
Turning to `CC(=O)[O-].CC(=O)[O-].[Cd+2]` [CADMIUMACETATE], the “Activation 100 nL” value is listed as 47% and the “Activation 200 nL” value is −6%. Moreover, the “100 nL (luminescence)” value under setting [3] was determined as 992. In addition, under setting [4], the “200 nL (luminescence)” value came out at 312.
